Measured values: publication PMC6711789 (Bioorganic & medicinal chemistry letters, 2019)
Marks after values point to notes of the source that are not given here.

Key:
[1] = system: S. aureus ATCC 8235-4 (MSSA); experiment: Broth microdilution MIC against S. aureus ATCC 8235-4; format: cell-based; settings: lowest concentration preventing visible growth
[2] = Cytotoxicity against HepG2 cells using CellTiter Glo; format: cell-based; settings: human
[3] = system: CYP1A2, 2C9, 2C19, 2D6, 3A4; experiment: CYP inhibition; format: in vitro ADME; settings: measured against CYP1A2, 2C9, 2C19, 2D6, 3A4
[4] = system: COXI and SDH-A mitochondrial proteins; format: cell-based; settings: read-out: Mt protein synthesis inhibition IC50

SMILES	MIC [1]	CYP inhibition [3] [µM]	IC50 [4] [µM]	EC50 [2] [µM]
CC(=O)NC[C@H]1CN(c2ccc(N3CCOC(C)(CCN(C)C)C3)c(F)c2)C(=O)O1 (stereo partly drawn) [Compound 23]	> 32^b μg/mL	–	–	–
CC(=O)NC[C@H]1CN(c2ccc(N3CCOC4(CCCNC4)C3)c(F)c2)C(=O)O1 (stereo partly drawn) [Compound 25]	> 32^b μg/mL	–	–	–
CC(=O)NC[C@H]1CN(c2ccc(N3CCOC4(CCNC4)C3)c(F)c2)C(=O)O1 (stereo partly drawn) [Compound 27]	> 32^b μg/mL	–	–	–

More lines, main results first:

MIC [1]	CYP inhibition [3] [µM]	IC50 [4] [µM]	SMILES	EC50 [2] [µM]
> 32^b μg/mL	–	–	CC(=O)NC[C@H]1CN(c2ccc(N3CCOC4(CCN(C)C4)C3)c(F)c2)C(=O)O1 (stereo partly drawn) [Compound 17]	–
–	> 100	30	CC(=O)NC[C@H]1CN(c2ccc(N3CCO[C@@]4(CCCOC4)C3)c(F)c2)C(=O)O1 [Compound 19a]	> 30
–	>100	> 30	CC(=O)NC[C@H]1CN(c2ccc(N3CCO[C@]4(CCCOC4)C3)c(F)c2)C(=O)O1 [Compound 19b]	> 30
–	>100	–	CC(=O)NC[C@H]1CN(c2ccc(N3CCOCC3)c(F)c2)C(=O)O1 [Linezolid, linezolid, reference compound]	> 30
